Read-outs that look alike come from different tables or passages of the source.
Legend:
[1] = system: FRS2 (Y436) phosphorylation; assay: Immunoblotting, FRS2 phosphorylation; type: cell-based, human; settings: RT-112 cells
Experimental: (§1) Cells were serum starved o.n. and 10 µM compound or 1 µM (BGJ398) were added 3 h before stimulation with 100 ng/ml bFGF for 15 min. Cells were lysed in RIPA buffer containing protease inhibitor cocktail and lysates resolved by SDS-PAGE. Membranes were probed with primary antibodies against phospho-FRS2, FRS2, phospho-ERK1/2, ERK1/2, pAKT, AKT and tubulin. Integrated density of immuno-reactive bands was quantified using Adobe Photoshop CS3. Integrated densities of phospho bands relative to non-phospho bands of same protein were calculated and plotted as fold-change relative to untreated control conditions. Compounds and BGJ398 were added in DMSO and corresponding DMSO concentrations were used in control samples.

[2] = system: DAOY cells; assay: Spheroid invasion assay (SIA), bFGF-induced collagen I invasion; type: cell-based, human; settings: for EC50: DAOY cells, n = 3 technical replicas, read-out: EC50 for the inhibition of bFGF-induced collagen I invasion
Experimental: 1000—2500 cells/well in 100 μl were seeded in 96 well Corning® Spheroid microplate (CLS4520, Sigma-Aldrich) or in cell-repellent 96 well microplate (650,790, Greiner Bio-one). SIA and analysis was performed as described before. In brief: After spheroid formation (24 – 72 h after seeding), 70 µl medium was removed and replaced with the collagen mixture (2.5 mg/ml Pure Col Collagen I (Advanced Biomatrix)), DMEM 1x (from 10 × stock, Sigma, D2429) and 0.4% Sodium bicarbonate (Sigma, S8761)), resulting in a final collagen concentration of 1.75 mg/ml. Embedded spheroids were stimulated with bFGF (100 ng/ml if not otherwise stated), HGF (30 ng /ml) or EGF (20 ng/ml) and distance of invaded cells quantified 24 – 48 h after embedding. Compounds and BGJ398 were added in Dimethylsulfoxid (DMSO) and corresponding DMSO concentrations were used in control samples.

[3] = system: ERK (pT202/Y204); assay: Immunoblotting, ERK phosphorylation; type: cell-based, human; settings: DAOY, SW780, M059K, SKOV3, AGS, DMS114 and RT-112 cells; 10 µM compound or 1 µM BGJ398
Experimental: as §1

[4] = system: DMS114; assay: Boyden chamber transwell migration assay; type: cell-based, human; settings: 24 h
Experimental: Transwells with 5 μm pore size (83.3932.500; Sarstedt) were coated with 50 µl of 0.06 μg/μl Pure Col Collagen I (5005; Advanced BioMatrix) dissolved in 100% EtOH for a final concentration of 10 μg/cm^2. 10,000 – 15,000 cells were resuspended in serum-free medium or serum-free medium containing the appropriate treatment and seeded in the upper chamber of a 24 well plate containing the coated transwell. The lower chamber was filled with either serum-free medium or serum-free medium with bFGF (25 ng/ml). Transwell migration was allowed for 24 h (DMS114) or 48 h (HCT116) at 37 °C, 5% CO2. Inserts were washed twice with PBS and the remaining non-invading cells on the upper surface of the membrane were removed using a cotton swab. The cells were fixed in 4% paraformaldehyde (28908; Thermo Fisher Scientific) in PBS for 5 min at RT. Fixed cells were washed twice with PBS and stained with DAPI for 15 min at RT. Inserts were washed three times in PBS before images of DAPI-stained nuclei were acquired using a widefield Nikon Ti2 microscope at 40 × magnification. Nuclei were counted on the membrane areas using ImageJ software and plotted on Prism 9 software (GraphPad).

[5] = system: human cancer cell lines; assay: CellTiter-Glo viability (2D culture or 3D spheroids), cell line panel; type: cell-based; settings: SW780, RT-112, M059K and SKOV3 cells; 2.7 to 20 µM; 48 h
Experimental: Cell viability was determined using CellTiter-Glo® 2D or 3D cell viability assays (#G9242, #G9682, Promega). 500 cells/25 µl were seeded in flat bottom (#781,091, Greiner bio-one) or U-low adhesion (#4516, Corning) 384-well plate, 24 h prior to treatment. Increasing concentrations of compounds are deposited on cells using a HP Digital Drug Dispenser with DMSO total volume normalization. After 48 h, the CellTiter-Glo® 2D or 3D reagent was added (volume/volume) following manufacturer’s instructions. Plates were incubated at RT (room temperature) under agitation for 30 min and luminescence representing the number of viable cells was quantified with a Cytation 3 imaging reader (BioTek®). Experiments were performed independently three times with three technical replicas each.

[6] = system: pFRS2Y436; assay: IHC of pFRS2Y436 in SKOV3 flank tumor samples; type: in vivo, mice; settings: SKOV3 model; end of treatment
Experimental: IHC of tumor sections was performed by Sophistolab (Muttenz, Switzerland) on a Lecia BondMax instrument using Refine HRP-Kits (Leica DS9800). All buffer-solutions were purchased from Lecia Microsystems Newcastle, Ltd and used according to the manufacturer’s guidelines. Paraffin-slides were de-waxed, pre-treated and incubated as follows: ER-solution 2 for 10 min at 95 °C, ER-solution 2 for 20 min at 100 °C and ER-solution 2 for 30 min at 100 °C. pFRS2; Rabbit anti-Phospho FRS2 (PhosphoY 436, Abcam Limited; ab193363), dilution 1:150; phospho-p44/42 MAPK (Erk1/2Thr202/Tyr204) Rabbit mAb (Cell Signaling Technology #4370), dilution 1:1600. The IHC images were captured digitally using a Nikon Epifluorescence Eclipse Ti2 equipped with a Nikon DS-Ri2 color and a Nikon DS-Qi2 monochrome camera.

[7] = system: Caco-2 cells; assay: CaCo-2 permeability (bi-directional); settings: Direction A2B
Experimental: (§2) Caco-2 cells obtained from the ATCC were used between passage numbers 40—60. Cells were seeded onto Millipore Multiscreen Transwell plates at 1 × 10^5 cells/cm^2. The cells were cultured in DMEM and media was changed every two or three days. On day 20, the permeability study was performed. […] Cells were then incubated with HBSS at the desired pH in both apical and basolateral compartments for 40 min to stabilize physiological parameters.
(§3) The fluorescent integrity marker lucifer yellow was also included in the dosing solution. Analytical standards were prepared from test compound DMSO dilutions and transferred to buffer, maintaining a 1% v/v DMSO concentration.
(§4) For assessment of A-B permeability, HBSS was removed from the apical compartment and replaced with test compound dosing solution. The apical compartment insert was then placed into a companion plate containing fresh buffer (containing 1% v/v DMSO). For assessment of B-A permeability, HBSS was removed from the companion plate and replaced with test compound dosing solution. Fresh buffer (containing 1% v/v DMSO) was added to the apical compartment insert, which was then placed into the companion plate.
(§5) Compound permeability was assessed in duplicate. Compounds of known permeability characteristics were run as controls on each assay plate.
(§6) Test and control compounds were quantified by LC–MS/MS cassette analysis using a 7-point calibration with appropriate dilution of the samples. The starting concentration (C0) was determined from the dosing solution and the experimental recovery calculated from C0 and both apical and basolateral compartment concentrations. The integrity of the monolayer throughout the experiment was checked by monitoring lucifer yellow permeation using fluorimetric analysis.
(§7) The permeability coefficient (Papp) for each compound was calculated from the following equation: Papp=dQ/dtC0×A where dQ/dt was the rate of permeation of the drug across the cells, C0 was the donor compartment concentration at time zero and A was the area of the cell monolayer. C0 was obtained from analysis of the dosing solution.
(§8) Efflux ratio (ER) was calculated from mean A-B and B-A data. This was derived from: ER=Papp(B-A)Papp(A-B)

[8] = CaCo-2 permeability (bi-directional); settings: human
Experimental: as §2, §3, §4, §5, §6, §7, §8

[9] = Microsomal metabolic stability; type: in vitro ADME; settings: human, pooled liver microsomes
Experimental: Pooled liver microsomes were purchased from Xenotech (H0500) and were stored according to manufacturer’s instructions prior to use. […] A minus co-factor control incubation was included for each compound tested where 0.1 M phosphate buffer pH 7.4 was added instead of NADPH. Two control compounds were included with each species. All incubations were performed singularly for each shortlisted hit. Each compound was incubated for 0, 5, 15, 30 and 45 min. The minus co-factor was incubated for 45 min only. The reactions were stopped by transferring incubate into acetonitrile at the appropriate time points in a 1:3 ratio. The termination plates were centrifuged at 3000 rpm for 20 min at 4 °C to precipitate the protein. Following protein precipitation, the supernatant were combined in cassette of up to 4 compounds, internal standard for MS analysis was added and samples were analyzed using LC–MS/MS. From a plot of In peak area ratio (compound peak area/internal standard peak area) against time, the gradient of the lines were determined. Subsequently, half-life and intrinsic clearance were calculated using the following equations. Eliminationrateconstant(k)=(-gradient)Half-life(t1/2)(min)=0.693/kIntrinsicclearance(CLint)(μl/min/mgprotein)=Vx0.693/t1/2 where V = Incubation volume (µl) / Microsomal protein (mg)

[10] = Cell viability (cytotoxicity, MTT) using HepG2; type: cell-based, human; settings: human, HepG2 cells, 72 h, summary sheet, read-out: MTT (AC50) Conc at which 50% of maximum efficacy is reached
Experimental: (§9) HepG2 human hepatocellular carcinoma cells were plated on 96-well tissue culture polystyrene plates for 24 h prior to dosing of the cells. The shortlisted hits were diluted in DMSO and serial dilutions are made 1% DMSO in growth media. Compounds at 8 concentrations in triplicate was then incubated for 72 h. Appropriate blanks and controls were run alongside the assay. One h prior to the end of the incubation period, the cells were loaded with MTT [yellow; 3-(4,5-dimethyl-2-thiazolyl)-2,5-diphenyl-2H-tetrazolium bromide], the plates were dried and re-solubilized using DMSO. The plates were then scanned at 570 nm using a plate reader.
(§10) The minimum effective concentration was determined from the lowest concentration whose mean value exceeds the significance level, provided either a clear dose–response relationship was observed, or at least two consecutive concentration points were above the significance level.

[11] = system: HepG2 human hepatocellular carcinoma cells; assay: Cell viability (cytotoxicity, MTT) using HepG2; type: cell-based
Experimental: as §9, §10

[12] = Semi-thermodynamic solubility; type: physicochemical; settings: for solubility: Room Temp, Overnight, LC-MSMS
Experimental: In vitro ADME-T assays were performed by Cyprotex (Cyprotex Discovery, Cheshire, UK). […] The solution was agitated at ambient temperature overnight. The solutions were then centrifuged for 30 min at 3000 rpm at RT. The supernatant was removed and centrifuged for a further 30 min under the same conditions. An aliquot of the resulting supernatant was diluted in 50% methanol in water (containing an internal standard for MS analysis) prior to analysis by LC–MS/MS. […] These stocks were diluted in 50% methanol in water (containing an internal standard for MS analysis) prior to analysis by LC–MS/MS. The solubility of the shortlisted hits was calculated from a linear or quadratic fit of the standard curve.

Compound: CCN1CCN(c2ccc(Nc3cc(N(C)C(=O)Nc4c(Cl)c(OC)cc(OC)c4Cl)ncn3)cc2)CC1 [BGJ398, 3-(2,6-Dichloro-3,5-dimethoxy-phenyl)-1-{6-[4-(4-ethyl-piperazin-1-yl)-phenylamino]-pyrimidin-4-yl}-1-methyl-urea, reference compound]
- basal and bFGF-induced phosphorylation of FRS2Y436 (result in words) [1]: reduced basal and bFGF-induced phosphorylation
- EC50 [2]: 470 nM
- EC50 ([2]; Homo sapiens, Daoy): 468 nM
- basal and bFGF-induced phosphorylation of ERK (result in words) [3]: inhibited basal and bFGF-induced phosphorylation
- concentration at which significant reduction of transwell migration was observed [4]: 1 µM
- viability (result in words) [5]: reduced viability
- pFRS2 Y436 in tumor tissues by IHC (result in words) [6]: No clear difference in pFRS2 Y436

Compound: Oc1cc(Cl)cc2c1NC(c1ccc(Cl)cc1)C1CC=CC21 (centres unmarked) [Compound 12]
- functional activity in SIA (result in words) ([2]; DAOY, bFGF-induced, 1, 5 and 10 µM): reduced invasion comparable to the parent compound 7
- Comments: A2B permeation (result in words) [7]: Test compound not detectable in receiver compartments A2B. High C0 value A2B and B2A. Recovery low B2A. Possible solubility or binding issues. Accuracy of result questionable.
- Papp B→A at 120 min, 10 μM ([8]; Caco-2, Mean Papp B-A, Caco-2, summary sheet): 7.53 ×10⁻⁶ cm/s
- recovery at 120 min, 10 µM ([8]; Caco-2, pH 7.4, Mean % Recovery A2B, HBSS/HBSS, pH 7.4/7.4): 51.5%
- recovery at 120 min, 10 µM ([8]; Caco-2, pH 7.4, Mean % Recovery B2A, HBSS/HBSS, pH 7.4/7.4): 14.4%
- Papp B→A at 120 min, 10 μM ([8]; Caco-2, pH 7.4, Mean Papp B2A, HBSS/HBSS, pH 7.4/7.4): 7.53 ×10⁻⁶ cm/s
- Papp B→A at 120 min, 10 μM ([8]; Caco-2, pH 7.4, Papp B2A Replicate 1, HBSS/HBSS, pH 7.4/7.4): 6.28 ×10⁻⁶ cm/s
- Papp B→A at 120 min, 10 μM ([8]; Caco-2, pH 7.4, Papp B2A Replicate 2, HBSS/HBSS, pH 7.4/7.4): 8.78 ×10⁻⁶ cm/s
- half-life at 1 µM ([9]; pH 7.4, liver microsomes, read-out: t1/2): 2.5 min
- microsomal CLint at 1 µM ([9]; pH 7.4, read-out: Metabolic stability - Intrinsic clearance (CI)): 555 µL/min/mg
- AC50 at 72 h [10]: 17500 nM
- MEC ([11]; 72h, 3 replicas, NR = No response (Summary sheet)): 9.85 µM
- MTT (MEC) Minimum effective concentration ([11]; 72 h, summary sheet): 9.85 µM
- solubility ([12]; PBS, aqueous buffer, thermodynamic from solid, read-out: Mean Solubility): < 1 µM
- solubility ([12]; PBS, aqueous buffer, thermodynamic from solid, read-out: Solubility Replicate 1): < 1 µM
- solubility ([12]; PBS, aqueous buffer, thermodynamic from solid, read-out: Solubility Replicate 3): < 1 µM
- solubility ([12]; PBS, aqueous buffer, thermodynamic from solid, read-out: Solubility Replicate 4): < 1 µM
- solubility thermodynamic ([12]; aqueous buffer, thermodynamic from solid, PBS, overnight, summary sheet): < 1 µM
- Solubility (class in words) ([12]; summary sheet): Very slightly
